Experimental data published in ChEMBL document CHEMBL1154197, “Synthesis and biological evaluation of berberine analogues as novel up-regulators for both low-density-lipoprotein receptor and insulin receptor” (2009).
Activity calls are given as the source filed them. The calls are words filed in the database; no cut-off is given here.

Assays:
HepG2 [1] = assay: Upregulation of LDLR mRNA expression in human liver HepG2 at 10 ug/mL after 8 hrs by RT-PCR relative to control; assay type: functional
HepG2 [2] = assay: Upregulation of InsR mRNA expression in human liver HepG2 at 10 ug/mL after 8 hrs by RT-PCR relative to control; assay type: functional
HepG2 [3] = assay: Upregulation of InsR […] expression in human liver HepG2 at 10 ug/mL after 12 hrs by flow cytometry; assay type: functional, cell-based
HepG2 [4] = assay: Upregulation of LDLR […] expression in human liver HepG2 at 10 ug/mL after 12 hrs by flow cytometry; assay type: functional, cell-based

Row | Compound | fold change (FC) (HepG2 [1]) | fold change (FC) (HepG2 [2]) | Activity (HepG2 [3]) | Activity (HepG2 [4])
1 | COc1ccc2cc3[n+](cc2c1OC)CCc1cc2c(cc1-3)OCO2.[Cl-] [BERBERINE CHLORIDE] | 1.9 | 2.3 |  | 
2 | COc1cc2c(cc1O)CC[n+]1cc3cc(OC)c(OC)cc3cc1-2.[Cl-] [DEHYDRODISCRETINE CHLORIDE] | 1 | 0.6 |  | 
3 | COc1cc2c(cc1O)-c1cc3cc(OC)c(OC)cc3c[n+]1CC2.[Cl-] | 1.1 | 0.8 |  | 
4 | COc1cc2cc3[n+](cc2cc1OC)CCc1cc(OC)c(OC)c(OC)c1-3.[Cl-] | 1.1 | 0.8 |  | 
5 | COc1cc2c(cc1O)CC[n+]1cc3cc(OC)c(OC)c(OC)c3cc1-2.[Cl-] | 1 | 1 |  | 
6 | COc1ccc2cc3[n+](cc2c1OC)CCc1cc(OCc2ccccc2)ccc1-3.[Cl-] | 1.3 | 1.3 |  | 
7 | COc1cc2c(cc1OCc1ccccc1)-c1cc3ccc(OC)c(OC)c3c[n+]1CC2.[Cl-] | 1.5 | 1.7 |  | 
8 | COc1cc2c(c(OC)c1OC)-c1cc3ccc(OC)c(OC)c3c[n+]1CC2.[Cl-] | 1.1 | 1.2 |  | 
9 | Oc1ccc2cc3[n+](cc2c1)CCc1cc2c(cc1-3)OCO2.[Cl-] | 1.9 | 1.4 |  | 
10 | COc1ccc2cc3[n+](cc2c1OC)CCc1cc(O)ccc1-3.[Cl-] | 0.8 | 1.2 |  | 
11 | COc1cc2cc3[n+](cc2cc1OC)CCc1cc2c(cc1-3)OCO2.[Cl-] [PSEUDOBERBERINE] | 3.1 | 1.2 |  | 
12 | COc1cc2cc3[n+](cc2cc1OC)CCc1cc(OCc2ccccc2)ccc1-3.[Cl-] | 1 | 0.8 |  | 
13 | COc1cc2c(cc1OC)-c1cc3cc(OC)c(OC)cc3c[n+]1CC2.[Cl-] | 1.1 | 1.1 |  | 
14 | COc1cc2cc3[n+](cc2cc1OC)CCc1cc(O)ccc1-3.[Cl-] | 0.9 | 0.7 |  | 
15 | COc1cc2c(cc1OC)-c1cc3ccc(O)cc3c[n+]1CC2.[Cl-] | 1 | 0.9 |  | 
16 | COc1c(O)ccc2cc3[n+](cc12)CCc1cc2c(cc1-3)OCO2.[Cl-] [THALIFENDINE] | 1.6 | 1.7 | Active | Active
17 | COc1cc2c(cc1O)CC[n+]1cc3cc(O)ccc3cc1-2.[Cl-] | 1.4 | 1.2 |  | 
